Results from paper PMC6261661 (ACS chemical neuroscience, 2018).
Square brackets hold non-standard residues; d marks the D form. Peptide text beside a SMILES is read from it. * marks the point of attachment. dBip = N[C@H](Cc1ccc(-c2ccccc2)cc1)C(=O)O; dPhe(4-I) = N[C@H](Cc1ccc(I)cc1)C(=O)O; 1Nal = N[C@@H](Cc1cccc2ccccc12)C(=O)O; 2Nal = N[C@@H](Cc1ccc2ccccc2c1)C(=O)O; d1Nal = N[C@H](Cc1cccc2ccccc12)C(=O)O; d2Nal = N[C@H](Cc1ccc2ccccc2c1)C(=O)O; Bta = N[C@@H](Cc1csc2ccccc12)C(=O)O; 3Pal = N[C@@H](Cc1cccnc1)C(=O)O; Tic = O=C(O)[C@@H]1Cc2ccccc2CN1; 2Thi = N[C@@H](Cc1cccs1)C(=O)O; Octanoyl = CCCCCCCC(=O)*

Tests used:
Assay type in all cases: cell-based
mMC5R = mMC5R (Mus musculus, UniProt P41149); assay: CRE/β-galactosidase reporter gene bioassay, agonist activity at mMC5R; details: for mMC5R pharmacology in words: comparisons are to reference peptide 1; for mMC5R Fold Diff.: fold difference in EC50 vs peptide 1, negative prefix = more potent than 1; for mMC5R fold less potent than peptide 1: less potent than 1
mMC5R, sequence (P41149 whole entry): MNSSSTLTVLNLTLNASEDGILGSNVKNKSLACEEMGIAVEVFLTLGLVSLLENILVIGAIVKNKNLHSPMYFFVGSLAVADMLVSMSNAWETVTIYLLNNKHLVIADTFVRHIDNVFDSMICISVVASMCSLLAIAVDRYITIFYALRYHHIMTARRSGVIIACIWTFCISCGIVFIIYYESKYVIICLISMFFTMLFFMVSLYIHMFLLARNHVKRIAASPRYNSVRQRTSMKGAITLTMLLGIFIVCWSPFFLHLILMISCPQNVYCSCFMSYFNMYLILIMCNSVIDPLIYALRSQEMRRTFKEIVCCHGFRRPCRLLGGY

mMC3R [1] = target: T1, mMC3R (Mus musculus, UniProt P33033); assay: cell-based; details: for mMC3R Fold Diff: fold difference in EC50 vs peptide 1, negative prefix = more potent than 1
T1 sequence (P33033 whole entry): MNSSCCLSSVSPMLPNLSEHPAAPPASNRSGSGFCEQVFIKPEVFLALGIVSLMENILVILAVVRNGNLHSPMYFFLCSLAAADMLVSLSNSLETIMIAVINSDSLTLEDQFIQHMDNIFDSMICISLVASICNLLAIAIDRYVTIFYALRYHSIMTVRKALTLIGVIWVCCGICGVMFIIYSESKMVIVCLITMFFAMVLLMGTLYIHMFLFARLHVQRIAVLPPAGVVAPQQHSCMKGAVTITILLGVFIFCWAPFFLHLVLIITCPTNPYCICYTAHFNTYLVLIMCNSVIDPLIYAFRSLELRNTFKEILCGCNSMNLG

mMC4R = mMC4R (Mus musculus, UniProt P56450); assay: CRE/β-galactosidase reporter gene bioassay, agonist activity at mMC4R; details: for mMC4R Fold Diff.: fold difference in EC50 vs peptide 1, negative prefix = more potent than 1; for mMC4R fold less potent than compound 1: less potent than 1
mMC4R, sequence (P56450 whole entry): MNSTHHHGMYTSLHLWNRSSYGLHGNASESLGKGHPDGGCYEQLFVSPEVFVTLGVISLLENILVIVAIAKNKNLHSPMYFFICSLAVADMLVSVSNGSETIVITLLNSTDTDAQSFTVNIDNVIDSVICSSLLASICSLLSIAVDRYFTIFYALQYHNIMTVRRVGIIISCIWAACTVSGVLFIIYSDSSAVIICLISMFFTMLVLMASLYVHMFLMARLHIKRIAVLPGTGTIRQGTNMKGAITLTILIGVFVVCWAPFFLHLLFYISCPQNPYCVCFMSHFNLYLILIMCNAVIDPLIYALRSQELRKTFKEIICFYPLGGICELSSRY

mMC1R = mMC1R (Mus musculus, UniProt Q01727); assay: CRE/β-galactosidase reporter gene bioassay, agonist activity at mMC1R; details: for mMC1R Fold Diff: fold difference in EC50 vs peptide 1, negative prefix = more potent than 1; for EC50: mMC1R EC50, agonist, HEK-293 cells stably expressing receptor, ±SEM; for mMC1R fold difference in EC50, more potent than reference peptide 1: more potent agonist than 1; for mMC1R pharmacology in words: comparisons are to reference peptide 1; for mMC1R fold decrease in potency compared to compound 1: less potent than 1
mMC1R, sequence (Q01727 whole entry): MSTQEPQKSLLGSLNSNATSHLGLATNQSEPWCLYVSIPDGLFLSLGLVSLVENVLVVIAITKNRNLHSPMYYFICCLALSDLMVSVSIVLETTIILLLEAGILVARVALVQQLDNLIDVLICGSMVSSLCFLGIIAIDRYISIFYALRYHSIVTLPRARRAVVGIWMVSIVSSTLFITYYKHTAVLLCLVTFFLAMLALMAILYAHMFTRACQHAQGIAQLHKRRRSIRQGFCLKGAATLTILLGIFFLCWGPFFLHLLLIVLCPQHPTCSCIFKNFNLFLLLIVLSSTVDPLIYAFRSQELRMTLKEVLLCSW

mMC3R [2] = target: T1, mMC3R; assay: Antagonist Schild analysis against agonist MTII at mMC3R
[3] = ligand at 100 μM, compared to maximal response generated by α-MSH

| SMILES | EC50 (mMC5R) [nM] | EC50 (mMC3R [1]) [nM] | EC50 (mMC4R) [nM] | mMC5R pharmacology in words (mMC5R) | mMC1R Fold Diff (mMC1R) | EC50 (mMC1R) [nM] | mMC4R Fold Diff. (mMC4R) | mMC5R Fold Diff. (mMC5R) | other results |
| --- | --- | --- | --- | --- | --- | --- | --- | --- | --- |
| CC(=O)N[C@@H](Cc1cnc[nH]1)C(=O)N[C@H](Cc1ccccc1)C(=O)N[C@@H](CCCN=C(N)N)C(=O)N[C@@H](Cc1c[nH]c2ccccc12)C(N)=O [Peptide 1, Ac-His-DPhe-Arg-Trp-NH2, reference compound] | 5.3 ± 1.6 |  |  |  |  |  |  |  |  |
| CCCCCCCC(=O)N[C@@H](Cc1c[nH]cn1)C(=O)N[C@H](Cc1ccccc1)C(=O)N[C@@H](CCCNC(=N)N)C(=O)N[C@@H](Cc1csc2ccccc12)C(N)=O [Peptide 3, Octanoyl-His-DPhe-Arg-3Bal-NH2] (Octanoyl-H[dF]R[Bta]-NH2) | 2.4 ± 0.5 | 52 ± 7 | 13 ± 3 | equipotent | −10 | 14.6 ± 3.9 |  |  | mMC3R Fold Diff (mMC3R [1]): −11; mMC3R fold difference, more potent agonist than Ac-His-DPhe-Arg-Trp-NH2 (mMC3R [1]; more potent than 1): 11 fold; mMC1R fold difference in EC50, more potent than reference peptide 1 (mMC1R): 10 fold |
| CCCCCCCC(=O)N[C@@H](Cc1c[nH]cn1)C(=O)N[C@H](Cc1ccccc1)C(=O)N[C@@H](CCCNC(=N)N)C(=O)N1Cc2ccccc2C[C@H]1C(N)=O [Peptide 4, Octanoyl-His-DPhe-Arg-Tic-NH2] (Octanoyl-H[dF]R[Tic]-NH2) | 270 ± 20 | 6900 ± 400 | 1700 ± 300 | decreased potencies | −20 | 7.4 ± 2.1 | 120 | 50 | mMC3R Fold Diff (mMC3R [1]): 12; mMC5R fold less potent than peptide 1 (mMC5R): 50 fold |
| CCCCCCCC(=O)N[C@@H](Cc1c[nH]cn1)C(=O)N[C@H](Cc1ccccc1)C(=O)N[C@@H](CCCNC(=N)N)C(=O)N[C@@H](Cc1ccccc1)C(N)=O [Peptide 5, Octanoyl-His-DPhe-Arg-Phe-NH2] (Octanoyl-H[dF]RF-NH2) | 26 ± 3 | 290 ± 60 | 110 ± 10 | decreased potencies | −7 | 19.4 ± 2.1 | 8 | 5 |  |
| CCCCCCCC(=O)N[C@@H](Cc1c[nH]cn1)C(=O)N[C@H](Cc1ccc(-c2ccccc2)cc1)C(=O)N[C@@H](CCCNC(=N)N)C(=O)N[C@@H](Cc1c[nH]c2ccccc12)C(N)=O [Peptide 7, Octanoyl-His-DBip-Arg-Trp-NH2] | 15 ± 4 |  | 500 ± 200 | equipotent | −40 | 3.7 ± 0.9 | 36 |  | mMC3R relative percentage of stimulation at 100 μM (mMC3R [1]; 100000.0): 50%−65%; mMC3R relative percentage of stimulation at 100 μM (mMC3R [1]; [3]): 60%; mMC1R fold difference in EC50, more potent than reference peptide 1 (mMC1R): 40 fold; Kb (mMC3R [2]): 63.1 nM; mMC3R pharmacology class printed in Fold Diff column (Ant, SA) (mMC3R [2]; Ant = antagonist, SA = some stimulatory activity at 100 µM): Ant |
| CCCCCCCC(=O)N[C@H](Cc1c[nH]cn1)C(=O)N[C@H](Cc1ccccc1)C(=O)N[C@@H](CCCNC(=N)N)C(=O)N[C@@H](Cc1c[nH]c2ccccc12)C(N)=O [Peptide 9, Octanoyl-DHis-DPhe-Arg-Trp-NH2] | 290 ± 40 | 4200 ± 800 | 340 ± 30 | decreased potencies |  | 230 ± 30 | 25 | 55 | mMC3R Fold Diff (mMC3R [1]): 7; mMC5R fold less potent than peptide 1 (mMC5R): 55 fold |
| CCCCCCCC(=O)N[C@@H](Cc1c[nH]c2ccccc12)C(=O)N[C@H](Cc1ccccc1)C(=O)N[C@@H](CCCNC(=N)N)C(=O)N[C@@H](Cc1c[nH]c2ccccc12)C(N)=O [Peptide 10, Octanoyl-Trp-DPhe-Arg-Trp-NH2] (Octanoyl-W[dF]RW-NH2) | 58 ± 7 |  | 180 ± 40 | decreased potencies |  | 210 ± 30 | 13 | 11 | mMC3R relative percentage of stimulation at 100 μM (mMC3R [1]; 100000.0): 50%−65%; mMC1R pharmacology in words (mMC1R): equipotent |
| CC(=O)N[C@@H](Cc1c[nH]c2ccccc12)C(=O)N[C@H](Cc1cccc2ccccc12)C(=O)N[C@@H](CCCNC(=N)N)C(=O)N[C@@H](Cc1c[nH]c2ccccc12)C(N)=O [Peptide 19, Ac-Trp-DNal(1’)-Arg-Trp-NH2] (Ac-W[d1Nal]RW-NH2) | 3900 ± 2200 | > 100000 | 12000 ± 4000 |  | 70 | 9700 ± 4700 | 870 | 725 |  |
| CC(=O)N[C@@H](Cc1c[nH]cn1)C(=O)N[C@H](Cc1ccc(I)cc1)C(=O)N[C@@H](CCCNC(=N)N)C(=O)N1Cc2ccccc2C[C@H]1C(N)=O [Peptide 31, Ac-His-(pI)DPhe-Arg-Tic-NH2] (Ac-H[dPhe(4-I)]R[Tic]-NH2) | 130 ± 30 | 2900 ± 400 | 640 ± 60 | less potent | −6 | 24 ± 4 | 46 | 25 | mMC3R Fold Diff (mMC3R [1]): 5; selectivity for the mMC1R, fold difference as compared to the mMC3R (mMC1R; agonist EC50): 120 fold; selectivity for the mMC1R, fold difference as compared to the mMC4R (mMC1R; agonist EC50): 26 fold; selectivity for the mMC1R, fold difference as compared to the mMC5R (mMC1R; agonist EC50): 6 fold; mMC1R pharmacology in words (mMC1R): more potent |
| CC(=O)N[C@@H](Cc1c[nH]cn1)C(=O)N[C@H](Cc1ccc(I)cc1)C(=O)N[C@@H](CCCNC(=N)N)C(=O)N[C@@H](Cc1ccccc1)C(N)=O [Peptide 32, Ac-His-(pI)DPhe-Arg-Phe-NH2] (Ac-H[dPhe(4-I)]RF-NH2) | 18.4 ± 5.7 |  | 80 ± 7 | equipotent agonists |  | 91 ± 13 | 6 |  | mMC3R relative percentage of stimulation at 100 μM (mMC3R [1]; [3]): 60% at 100 μM |

Further lines, with some results ahead:

| EC50 (mMC5R) [nM] | EC50 (mMC3R [1]) [nM] | EC50 (mMC4R) [nM] | mMC5R pharmacology in words (mMC5R) | mMC1R Fold Diff (mMC1R) | EC50 (mMC1R) [nM] | mMC4R Fold Diff. (mMC4R) | mMC5R Fold Diff. (mMC5R) | SMILES | other results |
| --- | --- | --- | --- | --- | --- | --- | --- | --- | --- |
| 500 ± 70 | > 100000 | 5400 ± 1600 |  | 71 | 10000 ± 4900 | 395 | 94 | CC(=O)N[C@@H](Cc1ccccc1)C(=O)N[C@H](Cc1ccc(-c2ccccc2)cc1)C(=O)N[C@@H](CCCNC(=N)N)C(=O)N[C@@H](Cc1c[nH]c2ccccc12)C(N)=O [Peptide 20, Ac-Phe-DBip-Arg-Trp-NH2] (Ac-F[dBip]RW-NH2) |  |
| 3800 ± 2100 | > 100000 | 2800 ± 1000 |  | 28 | 3900 ± 1900 | 205 | 720 | CC(=O)N[C@@H](Cc1ccccc1)C(=O)N[C@H](Cc1cccc2ccccc12)C(=O)N[C@@H](CCCNC(=N)N)C(=O)N[C@@H](Cc1c[nH]c2ccccc12)C(N)=O [Peptide 21, Ac-Phe-DNal(1’)-Arg-Trp-NH2] (Ac-F[d1Nal]RW-NH2) |  |
| 240 ± 50 | > 100000 | 110 ± 20 |  | 14 | 1900 ± 600 | 8 | 45 | CC(=O)N[C@@H](Cc1cccnc1)C(=O)N[C@H](Cc1ccccc1)C(=O)N[C@@H](CCCNC(=N)N)C(=O)N[C@@H](Cc1ccc2ccccc2c1)C(N)=O [Peptide 23, Ac-3PAL-DPhe-Arg-Nal(2’)-NH2] (Ac-[3Pal][dF]R[2Nal]-NH2) | mMC4R fold less potent than compound 1 (mMC4R): 8 fold; mMC1R fold decrease in potency compared to compound 1 (mMC1R): 14 fold |
| 3000 ± 1200 |  | 1100 ± 300 |  | 23 | 3300 ± 1200 | 77 | 566 | CC(=O)N[C@@H](Cc1c[nH]c2ccccc12)C(=O)N[C@H](Cc1ccccc1)C(=O)N[C@@H](CCCNC(=N)N)C(=O)N[C@@H](Cc1cccc2ccccc12)C(N)=O [Peptide 24, Ac-Trp-DPhe-Arg-Nal(1’)-NH2] (Ac-W[dF]R[1Nal]-NH2) | mMC3R relative percentage of stimulation at 100 μM (mMC3R [1]; 100000.0): 50% |
| 4800 ± 1700 | > 100000 | 7900 ± 2400 |  | 57 | 8000 ± 3000 | 576 | 905 | CC(=O)N[C@@H](Cc1c[nH]c2ccccc12)C(=O)N[C@H](Cc1ccccc1)C(=O)N[C@@H](CCCNC(=N)N)C(=O)N[C@@H](Cc1csc2ccccc12)C(N)=O [Peptide 25, Ac-Trp-DPhe-Arg-3Bal-NH2] (Ac-W[dF]R[Bta]-NH2) | mMC4R fold less potent than compound 1 (mMC4R): 580 fold; mMC5R fold less potent than peptide 1 (mMC5R): approximately 1000 fold |
| 5800 ± 600 | > 100000 | 4300 ± 800 |  | 167 | 23000 ± 7000 | 310 | 1094 | CC(=O)N[C@@H](Cc1c[nH]c2ccccc12)C(=O)N[C@H](Cc1ccccc1)C(=O)N[C@@H](CCCNC(=N)N)C(=O)N[C@H](Cc1ccc2ccccc2c1)C(N)=O [Peptide 26, Ac-Trp-DPhe-Arg-DNal(2’)-NH2] (Ac-W[dF]R[d2Nal]-NH2) | mMC5R fold less potent than peptide 1 (mMC5R): approximately 1000 fold; mMC1R fold decrease in potency compared to compound 1 (mMC1R): > 160 fold |
| 970 ± 290 | > 100000 | 1300 ± 300 |  | 45 | 6400 ± 1600 | 91 | 183 | CC(=O)N[C@@H](Cc1cccs1)C(=O)N[C@H](Cc1ccccc1)C(=O)N[C@@H](CCCNC(=N)N)C(=O)N[C@@H](Cc1csc2ccccc12)C(N)=O [Peptide 27, Ac-2Thi-DPhe-Arg-3Bal-NH2] (Ac-[2Thi][dF]R[Bta]-NH2) |  |
| 76 ± 18 | 12000 ± 6000 | 450 ± 190 |  | 19 | 2600 ± 1300 | 33 | 14 | CC(=O)N[C@@H](Cc1cccs1)C(=O)N[C@H](Cc1ccccc1)C(=O)N[C@@H](CCCNC(=N)N)C(=O)N[C@@H](Cc1ccc2ccccc2c1)C(N)=O [Peptide 28, Ac-2Thi-DPhe-Arg-Nal(2’)-NH2] (Ac-[2Thi][dF]R[2Nal]-NH2) | mMC3R Fold Diff (mMC3R [1]): 22; mMC5R fold less potent than peptide 1 (mMC5R): 14 fold; fold more potent at the mMC5R compared to the mMC1R (mMC5R; selectivity, agonist EC50): 35 fold; fold more potent at the mMC5R compared to the mMC3R (mMC5R; selectivity, agonist EC50): 163 fold; fold more potent at the mMC5R compared to the mMC4R (mMC5R; selectivity, agonist EC50): 6 fold |
